Measured values as given in publication PMC3207004 (Clinical cancer research : an official journal of the …, 2011).
Entries after “also recorded” stand apart in the source; their conditions may differ.

How the values were obtained:
[1] = cited from earlier work
[2] = Plasma pharmacokinetics of PF-04928473 after oral PF-04929113; type: in vivo, human; conditions: patients
[3] = tested on: Hsp70 levels in peripheral blood mononuclear cells (PBMCs); experiment: Hsp70 induction in peripheral blood by western blot; type: in vivo, human
[4] = cited from earlier work; remark: listed apart in the source
[5] = Continuous EKG monitoring, corrected QT interval; type: in vivo, human; conditions: days 1 and 15 of cycle 1
[6] = tested on: advanced solid tumors and lymphomas; experiment: Assessment of response; type: in vivo, human
[7] = human, in vivo
[8] = no reference given, cited from earlier work
[9] = cited from earlier work; remark: listed apart in the source
[10] = Comprehensive ophthalmologic evaluation of patients on study; type: in vivo, human
[11] = Phase I dose-escalation study: adverse events, DLT and tolerability in patients; conditions: drug-related; 33 patients
[12] = 18 days after initiation of cycle 3

For `CC1(C)CC(=O)c2c(C(F)(F)F)nn(-c3ccc(C(N)=O)c(N[C@H]4CC[C@H](OC(=O)CN)CC4)c3)c2C1` [PF-04929113], the “Retinal damage in animal studies” value ([1]; canine model, reports, no reference given) is given as “irreversible retinal damage”, the Retinal toxicity ([1]; dog, in vivo) is given as “evidence of retinal toxicity” and the “Absorption following oral administration” value [2] is given as “rapidly absorbed”. For the same compound, the “Dose at or above which an increase in Hsp70 levels was seen in all patients” value ([3]; PBMCs) was no less than 33 mg/m^2/day, the “Patients with increased Hsp70 protein level at day 15 and/or day 16” value ([3]; PBMCs, compared to baseline) was 16 out of 19 and the “Relation of Hsp70 induction to PK parameters (Cmax and AUCinf of each cohort)” value ([3]; fold increase at 24h versus baseline) was “linear correlation”. The “Inhibition of Hsp90 in patients (PD studies)” value ([3]; in vivo) was “confirmed inhibition of Hsp90”, the “lowest biologically effective dose” value ([3]; orally twice weekly, based on PD data) was 33 mg/m^2 and the “Level of Hsp70 induction as a function of dose” value ([3]; ≤ 44 vs > 44 mg/m^2/dose) was “greater at higher dose levels”. The Oral bioavailability [4] was “orally bioavailable”, the “Effect on the corrected QT interval” value [5] was “did not reveal any effect” and the “Median duration of disease stabilization” value ([6]; 15 patients) was 16 weeks. The Objective responses ([6]; 32 evaluable patients) was “no objective tumor responses”, the “Anti-tumor activity as a single-agent” value ([6]; twice weekly continuous dosing) was “modest anti-tumor activity” and the “ALT elevation, Grade 1” value [7] was 5 (15) Number of patients (%). The “ALT elevation, Grade 2” value [7] was 1 (3) Number of patients (%), the “ALT elevation, Grade 3” value [7] was 0 Number of patients (%) and the “ALT elevation, Grade 4” value [7] was 0 Number of patients (%). For the same compound, the “AST elevation, Grade 1” value [7] was 3 (9) Number of patients (%), the “AST elevation, Grade 2” value [7] was 2 (6) Number of patients (%) and the “AST elevation, Grade 3” value [7] was 1 (3) Number of patients (%). The “AST elevation, Grade 4” value [7] was 0 Number of patients (%), the “Abdominal pain, Grade 1” value [7] was 1 (3) Number of patients (%) and the “Abdominal pain, Grade 2” value [7] was 0 Number of patients (%). For the same compound, the “Abdominal pain, Grade 3” value [7] was 0 Number of patients (%), the “Abdominal pain, Grade 4” value [7] was 0 Number of patients (%) and the “Alkaline phosphatase elevation, Grade 1” value [7] was 0 Number of patients (%). The “Alkaline phosphatase elevation, Grade 2” value [7] was 2 (6) Number of patients (%), the “Alkaline phosphatase elevation, Grade 3” value [7] was 0 Number of patients (%) and the “Alkaline phosphatase elevation, Grade 4” value [7] was 0 Number of patients (%). For the same compound, the “Anemia, Grade 1” value [7] was 2 (6) Number of patients (%), the “Anemia, Grade 2” value [7] was 3 (9) Number of patients (%) and the “Anemia, Grade 3” value [7] was 0 Number of patients (%). For the same compound, the “Anemia, Grade 4” value [7] was 0 Number of patients (%), the “Anorexia, Grade 1” value [7] was 2 (6) Number of patients (%) and the “Anorexia, Grade 2” value [7] was 1 (3) Number of patients (%). For the same compound, the “Anorexia, Grade 3” value [7] was 0 Number of patients (%), the “Anorexia, Grade 4” value [7] was 0 Number of patients (%) and the “Arthritis (non-septic), Grade 1” value [7] was 0 Number of patients (%). For the same compound, the “Arthritis (non-septic), Grade 2” value [7] was 1 (3) Number of patients (%), the “Arthritis (non-septic), Grade 4” value [7] was 0 Number of patients (%) and the “Constipation, Grade 1” value [7] was 1 (3) Number of patients (%). For the same compound, the “Constipation, Grade 2” value [7] was 0 Number of patients (%), the “Constipation, Grade 3” value [7] was 0 Number of patients (%) and the “Constipation, Grade 4” value [7] was 0 Number of patients (%). For the same compound, the “Cough, Grade 1” value [7] was 1 (3) Number of patients (%), the “Cough, Grade 2” value [7] was 0 Number of patients (%) and the “Cough, Grade 3” value [7] was 0 Number of patients (%). The “Cough, Grade 4” value [7] was 0 Number of patients (%), the “Creatinine phosphokinase elevation, Grade 1” value [7] was 1 (3) Number of patients (%) and the “Creatinine phosphokinase elevation, Grade 2” value [7] was 0 Number of patients (%). The “Creatinine phosphokinase elevation, Grade 3” value [7] was 0 Number of patients (%), the “Creatinine phosphokinase elevation, Grade 4” value [7] was 0 Number of patients (%) and the “Diarrhea, Grade 1” value [7] was 4 (12) Number of patients (%). The “Diarrhea, Grade 2” value [7] was 0 Number of patients (%), the “Diarrhea, Grade 3” value [7] was 3 (9) Number of patients (%) and the “Diarrhea, Grade 4” value [7] was 0 Number of patients (%). For the same compound, the “Dose Level at which grade 3 AST elevation occurred” value [7] was 77 mg/m^2, the “Dose Level at which grade 3 Non-septic arthritis occurred” value [7] was 16 mg/m^2 and the “Dose Level at which grade 3 Thrombocytopenia occurred” value [7] was 177 mg/m^2. For the same compound, the “Dysgeusia, Grade 1” value [7] was 1 (3) Number of patients (%), the “Dysgeusia, Grade 2” value [7] was 1 (3) Number of patients (%) and the “Dysgeusia, Grade 3” value [7] was 0 Number of patients (%). The “Dysgeusia, Grade 4” value [7] was 0 Number of patients (%), the “Dyspepsia, Grade 1” value [7] was 1 (3) Number of patients (%) and the “Dyspepsia, Grade 2” value [7] was 0 Number of patients (%). For the same compound, the “Dyspepsia, Grade 3” value [7] was 0 Number of patients (%), the “Dyspepsia, Grade 4” value [7] was 0 Number of patients (%) and the “Edema, Grade 1” value [7] was 0 Number of patients (%). The “Edema, Grade 2” value [7] was 1 (3) Number of patients (%), the “Edema, Grade 3” value [7] was 0 Number of patients (%) and the “Edema, Grade 4” value [7] was 0 Number of patients (%). The “Emesis, Grade 1” value [7] was 2 (6) Number of patients (%), the “Emesis, Grade 2” value [7] was 1 (3) Number of patients (%) and the “Emesis, Grade 3” value [7] was 0 Number of patients (%). For the same compound, the “Emesis, Grade 4” value [7] was 0 Number of patients (%), the “Fatigue, Grade 1” value [7] was 4 (12) Number of patients (%) and the “Fatigue, Grade 2” value [7] was 2 (6) Number of patients (%). For the same compound, the “Fatigue, Grade 3” value [7] was 0 Number of patients (%), the “Fatigue, Grade 4” value [7] was 0 Number of patients (%) and the “Flu-like symptoms, Grade 1” value [7] was 1 (3) Number of patients (%). For the same compound, the “Flu-like symptoms, Grade 2” value [7] was 0 Number of patients (%), the “Flu-like symptoms, Grade 3” value [7] was 0 Number of patients (%) and the “Flu-like symptoms, Grade 4” value [7] was 0 Number of patients (%). For the same compound, the “Hyponatremia, Grade 1” value [7] was 1 (3) Number of patients (%), the “Hyponatremia, Grade 2” value [7] was 0 Number of patients (%) and the “Hyponatremia, Grade 3” value [7] was 0 Number of patients (%). The “Hyponatremia, Grade 4” value [7] was 0 Number of patients (%), the “Hypophosphatemia, Grade 1” value [7] was 0 Number of patients (%) and the “Hypophosphatemia, Grade 2” value [7] was 1 (3) Number of patients (%). For the same compound, the “Hypophosphatemia, Grade 3” value [7] was 0 Number of patients (%), the “Hypophosphatemia, Grade 4” value [7] was 0 Number of patients (%) and the “Joint pain, Grade 1” value [7] was 1 (3) Number of patients (%). For the same compound, the “Joint pain, Grade 2” value [7] was 1 (3) Number of patients (%), the “Joint pain, Grade 3” value [7] was 0 Number of patients (%) and the “Joint pain, Grade 4” value [7] was 0 Number of patients (%). For the same compound, the “Leukopenia, Grade 1” value [7] was 2 (6) Number of patients (%), the “Leukopenia, Grade 2” value [7] was 0 Number of patients (%) and the “Leukopenia, Grade 3” value [7] was 0 Number of patients (%). The “Leukopenia, Grade 4” value [7] was 0 Number of patients (%), the “Lymphopenia, Grade 1” value [7] was 2 (6) Number of patients (%) and the “Lymphopenia, Grade 2” value [7] was 6 (18) Number of patients (%). The “Lymphopenia, Grade 3” value [7] was 0 Number of patients (%), the “Lymphopenia, Grade 4” value [7] was 0 Number of patients (%) and the “Muscle pain, Grade 1” value [7] was 0 Number of patients (%). The “Muscle pain, Grade 2” value [7] was 1 (3) Number of patients (%), the “Muscle pain, Grade 3” value [7] was 0 Number of patients (%) and the “Muscle pain, Grade 4” value [7] was 0 Number of patients (%). The “Nausea, Grade 1” value [7] was 8 (24) Number of patients (%), the “Nausea, Grade 2” value [7] was 1 (3) Number of patients (%) and the “Nausea, Grade 3” value [7] was 0 Number of patients (%). The “Nausea, Grade 4” value [7] was 0 Number of patients (%), the “Neutropenia, Grade 1” value [7] was 1 (3) Number of patients (%) and the “Neutropenia, Grade 2” value [7] was 0 Number of patients (%). For the same compound, the “Neutropenia, Grade 3” value [7] was 0 Number of patients (%), the “Neutropenia, Grade 4” value [7] was 0 Number of patients (%) and the “Thrombocytopenia, Grade 1” value [7] was 4 (12) Number of patients (%). The “Thrombocytopenia, Grade 2” value [7] was 0 Number of patients (%), the “Thrombocytopenia, Grade 3” value [7] was 1 (3) Number of patients (%) and the “Thrombocytopenia, Grade 4” value [7] was 0 Number of patients (%). For the same compound, the “Weight loss, Grade 1” value [7] was 1 (3) Number of patients (%), the “Weight loss, Grade 2” value [7] was 0 Number of patients (%) and the “Weight loss, Grade 3” value [7] was 0 Number of patients (%). The “Weight loss, Grade 4” value [7] was 0 Number of patients (%), the “grade 3 AEs: AST elevation” value [7] was 3% and the “grade 3 AEs: diarrhea” value [7] was 9%. The “grade 3 AEs: non-septic arthritis” value [7] was 3%, the “grade 3 AEs: thrombocytopenia” value [7] was 3% and the “Arthritis (non-septic), Grade 3” value [7, 12] was 1 (3) Number of patients (%). The “Dose at which the DLT (non-septic arthritis) was noted” value [7, 12] was 16 mg/m^2/dose, the “Patients with visual symptoms (nictalopia and blurred vision)” value ([8]; another phase I study, daily administration) was 4 out of 20 and Four out of 20 and the “Patients who complained of blurred vision” value ([8]; daily administration, grade 1) was “one”. The “Patients who complained of nictalopia” value ([8]; daily administration, grade 1) was “Three”, the “Onset of visual event after beginning the drug” value ([8]; in most cases, daily administration) was no more than 2 weeks and the “DLTs with daily administration” value [8] was 3 cases of grade 3 diarrhea, 1 case of grade 2 dehydration and grade 3 gastrointestinal hemorrhage and 1 case of grade 3 visual disturbance and grade 3 diarrhea. For the same compound, the Water solubility [9] was “water soluble”, the “Drug-related ocular toxicity in this study” value ([10]; oral twice weekly) was “no clinically significant drug-related ocular toxicity was seen in this study” and the “Ocular examination findings in single patients” value ([10]; three patients at 77, 133 and 177 mg/m^2, after 8, 10 and 28 cycles) was “slightly prolonged cone-rod break in the right eye but the ERG was normal; also recorded: normal eye exam; also recorded: slightly prolonged cone-rod break in one patient”. The “Grade 4 adverse events or deaths” value [11] was “No grade 4 adverse events (AEs) were seen; also recorded: No drug-related grade 4 adverse events or deaths were seen”.
